Source: publication PMC12298007 (Pharmaceuticals, 2025)
Non-standard residues stand in square brackets, D forms with d. Residues, ends and D or L forms follow the SMILES beside them. *: point of attachment. X1 = O=C(O)CC[C@H](NC(=O)N[C@@H](CCCCNC(=O)CCCCCCC(=O)*)C(=O)O)C(=O)O; d2Nal = N[C@H](Cc1ccc2ccccc2c1)C(=O)O; Mercaptoacetyl = O=C(CS)*

Molecular target: T1, human PSMA (CHO-K1-PSMA cells) (Homo sapiens, UniProt Q04609)
T1 construct: host or cells: CHO-K1 (lentiviral transduction, clone 5)
Assay: Saturation binding assay on CHO-K1-PSMA cells
Details: 2 h at 4 °C
Method: Saturation binding experiments were carried out with increasing concentrations of the radiolabeled peptides for 2 h at 4 °C. […] Cells were processed as previously published. […] The next day, the culture medium was replaced with 0.8 mL Ham's F 12 Nutrient Mix (1% FBS), and the cells were kept in the fridge for 30 min before the addition of the radioligand. […] The saturation assay was performed at 4 °C to avoid internalization. […] Total incubation volume per well: 1 mL. […] The obtained fractions and standard aliquots were measured in a γ-counter. […] Human GRPR reverse: [NT] Human β-ACTIN forward: [NT] Human β-ACTIN reverse: [NT] 3.3.4 Western blot Total protein was isolated from cell lines as previously described. PierceTM Coomassie Plus (Bradford) Protein Assay Kit (Thermo Scientific, Cat.Nr. 23236) was used for measuring protein concentrations and 30 μg (for PSMA) or 40 μg (for GRPR) protein per sample was used for SDS-PAGE and Western blot as previously described. PSMA (CST, D4S1F) Rabbit, GRPR (Alomone labs, Cat.Nr. ABR-002) Rabbit, α-Tubulin (Proteintech, Cat.Nr. 66031-1-Ig) Mouse and β-Actin (Proteintech, Cat.Nr. 66009-1-Ig) Mouse antibodies were utilized for detection of protein expression. Secondary antibodies used, included goat anti -rabbit IgG HRP conjugate (JD111036047) and rabbit anti -mouse IgG HRP conjugate (JD315035008). […] (Figure 6B, Table 1, main manuscript). […] 21

T1 sequence (Q04609 whole entry): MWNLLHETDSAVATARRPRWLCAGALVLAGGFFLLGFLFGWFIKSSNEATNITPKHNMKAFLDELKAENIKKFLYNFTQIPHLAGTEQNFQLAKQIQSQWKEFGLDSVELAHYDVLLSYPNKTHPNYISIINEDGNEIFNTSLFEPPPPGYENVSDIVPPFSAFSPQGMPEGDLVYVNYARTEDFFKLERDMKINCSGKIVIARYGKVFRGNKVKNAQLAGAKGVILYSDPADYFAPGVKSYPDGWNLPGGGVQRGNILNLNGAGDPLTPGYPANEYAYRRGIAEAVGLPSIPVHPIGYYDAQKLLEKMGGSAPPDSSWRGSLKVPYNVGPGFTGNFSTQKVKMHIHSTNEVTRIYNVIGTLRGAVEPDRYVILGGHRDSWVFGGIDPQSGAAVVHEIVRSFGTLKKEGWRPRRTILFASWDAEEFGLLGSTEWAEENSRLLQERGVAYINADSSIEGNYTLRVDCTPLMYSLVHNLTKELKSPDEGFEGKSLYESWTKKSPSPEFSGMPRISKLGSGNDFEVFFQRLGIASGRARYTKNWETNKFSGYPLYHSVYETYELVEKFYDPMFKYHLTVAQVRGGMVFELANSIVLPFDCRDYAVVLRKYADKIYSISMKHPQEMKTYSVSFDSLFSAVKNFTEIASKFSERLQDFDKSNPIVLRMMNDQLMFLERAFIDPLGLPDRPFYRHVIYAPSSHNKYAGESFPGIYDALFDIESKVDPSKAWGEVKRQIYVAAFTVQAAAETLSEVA

O=C(O)CC[C@H](NC(=O)N[C@@H](CCCCNC(=O)CCCCCCC(=O)NCCCC[C@@H](NC(=O)[C@@H](Cc1ccc2ccccc2c1)NC(=O)[C@@H](Cc1ccc(O)cc1)NC(=O)[C@@H](CO)NC(=O)[C@@H](CO)NC(=O)[C@@H](CO)NC(=O)CS)C(=O)O)C(=O)O)C(=O)O [[^99mTc]Tc-PSMA-I&S, metal not drawn] (Mercaptoacetyl-[dS][dS][dS][dY][d2Nal][dK](X1)-OH)
Kd: 3.84 ± 0.44 nM
